≈ marks a conversion by molar mass, not a printed value.
How the values were obtained:
Aspergillus clavatus [1] = assay: Antifungal activity against Aspergillus clavatus MTCC 1323 at 250 ug/ml after 74 hrs by Kirby-Bauer method; format: functional; details: MTCC 1323, 74 h, read-out: IZ
CAKI-1 = assay: Cytotoxicity against human Caki1 assessed as cell growth at high concentration; format: functional
[2] = Cytotoxicity against human MT4 cells by MTT assay; format: cell-based
HCT-15 = assay: Cytotoxicity against human HCT15 assessed as cell growth at high concentration; format: functional
NCI-H23 = assay: Cytotoxicity against human NCI-H23 assessed as cell growth at high concentration; format: functional
OVCAR-8 = assay: Cytotoxicity against human OVCAR8 assessed as cell growth at high concentration; format: functional
A498 = assay: Cytotoxicity against human A498 assessed as cell growth at high concentration; format: functional
CCRF-CEM = assay: Cytotoxicity against human CCRF-CEM assessed as cell growth at high concentration; format: functional
SK-OV-3 = assay: Cytotoxicity against human SKOV3 assessed as cell growth at high concentration; format: functional
KM12 = assay: Cytotoxicity against human KM12 assessed as cell growth at high concentration; format: functional
MOLT-4 = assay: Cytotoxicity against human MOLT4 assessed as cell growth at high concentration; format: functional
PC-3 = assay: Cytotoxicity against human PC3 assessed as cell growth at high concentration; format: functional
[3] = Cytotoxicity against human HEL cells; format: cell-based
OVCAR-5 = assay: Cytotoxicity against human OVCAR5 assessed as cell growth at high concentration; format: functional
Staphylococcus aureus = assay: Antibacterial activity against Staphylococcus aureus MTCC 96 at 250 ug/ml after 24 hrs by Kirby-Bauer method; format: functional; details: MTCC 96, 24 h, read-out: IZ
LOX IMVI = assay: Cytotoxicity against human LOXIMVI assessed as cell growth at high concentration; format: functional
NCI-H460 = assay: Cytotoxicity against human NCI-H460 assessed as cell growth at high concentration; format: functional
Cytomegalovirus [4] = assay: Antiviral activity against Cytomegalovirus AD-169 infected in HEL cells assessed as reduction in plaque formation; format: functional, organism-based; details: Human betaherpesvirus 5, AD-169, HEL
UACC-62 = assay: Cytotoxicity against human UACC62 assessed as cell growth at high concentration; format: functional
HOP-62 = assay: Cytotoxicity against human HOP62 assessed as cell growth at high concentration; format: functional
[5] = Selectivity index, ratio of CC50 for human MT4 cells to IC50 for HIV1 3B; format: functional
SN12C = assay: Cytotoxicity against human SN12C assessed as cell growth at high concentration; format: functional
Candida albicans [6] = assay: Antifungal activity against Candida albicans MTCC 227; format: functional
SF-295 = assay: Cytotoxicity against human SF295 assessed as cell growth at high concentration; format: functional
K562 = assay: Cytotoxicity against human K562 assessed as cell growth at high concentration; format: functional
NCI-H226 = assay: Cytotoxicity against human NCI-H226 assessed as cell growth at high concentration; format: functional
[7] = Cytotoxicity against human NCI-ADR-RES assessed as cell growth at high concentration; format: functional
RPMI-8226 = assay: Cytotoxicity against human RPMI8226 assessed as cell growth at high concentration; format: functional
SNB-19 = assay: Cytotoxicity against human SNB19 assessed as cell growth at high concentration; format: functional
DU-145 = assay: Cytotoxicity against human DU145 assessed as cell growth at high concentration; format: functional
NCI-H322M = assay: Cytotoxicity against human NCI-H322M assessed as cell growth at high concentration; format: functional
Streptococcus pyogenes = assay: Antibacterial activity against Streptococcus pyogenes MTCC 442 at 250 ug/ml after 24 hrs by Kirby-Bauer method; format: functional; details: MTCC 442, 24 h, read-out: IZ
Candida albicans [8] = assay: Antifungal activity against Candida albicans MTCC 227 at 250 ug/ml after 74 hrs by Kirby-Bauer method; format: functional; details: MTCC 227, 74 h, read-out: IZ
Aspergillus clavatus [9] = assay: Antifungal activity against Aspergillus clavatus MTCC 1323; format: functional
SK-MEL-5 = assay: Cytotoxicity against human SK-MEL-5 assessed as cell growth at high concentration; format: functional
EKVX = assay: Cytotoxicity against human EKVX assessed as cell growth at high concentration; format: functional
UO-31 = assay: Cytotoxicity against human UO31 assessed as cell growth at high concentration; format: functional
Cytomegalovirus [10] = assay: Antiviral activity against Cytomegalovirus Davis in HEL cells assessed as reduction in plaque formation; format: functional, organism-based; details: Human betaherpesvirus 5, Davis
Escherichia coli [11] = assay: Antibacterial activity against Escherichia coli MTCC 443 after 24 hrs by broth dilution method; format: functional; details: MTCC 443, 24 h
SF-268 = assay: Cytotoxicity against human SF268 assessed as cell growth at high concentration; format: functional
UACC-257 = assay: Cytotoxicity against human UACC257 assessed as cell growth at high concentration; format: functional
OVCAR-4 = assay: Cytotoxicity against human OVCAR4 assessed as cell growth at high concentration; format: functional
SNB-75 = assay: Cytotoxicity against human SNB75 assessed as cell growth at high concentration; format: functional
Pseudomonas aeruginosa = assay: Antibacterial activity against Pseudomonas aeruginosa MTCC 424 after 24 hrs by broth dilution method; format: functional; details: MTCC 424, 24 h
OVCAR-3 = assay: Cytotoxicity against human OVCAR3 assessed as cell growth at high concentration; format: functional
Aspergillus niger = assay: Antifungal activity against Aspergillus niger MTCC 282; format: functional
TK-10 = assay: Cytotoxicity against human TK10 assessed as cell growth at high concentration; format: functional
SW-620 = assay: Cytotoxicity against human SW620 assessed as cell growth at high concentration; format: functional
A549 = assay: Cytotoxicity against human A549 assessed as cell growth at high concentration; format: functional
IGROV-1 = assay: Cytotoxicity against human IGROV1 assessed as cell growth at high concentration; format: functional
Escherichia coli [12] = assay: Antibacterial activity against Escherichia coli MTCC 443 at 250 ug/ml after 24 hrs by Kirby-Bauer method; format: functional; details: MTCC 443, 24 h, read-out: IZ
T47D = assay: Cytotoxicity against human T47D assessed as cell growth at high concentration; format: functional
[13] = Selectivity index, ratio of CC50 for human MT4 cells to IC50 for HIV2 ROD; format: functional
BT-549 = assay: Cytotoxicity against human BT549 assessed as cell growth at high concentration; format: functional
Hs-578T = assay: Cytotoxicity against human Hs 578T assessed as cell growth at high concentration; format: functional
ACHN = assay: Cytotoxicity against human ACHN assessed as cell growth at high concentration; format: functional
MCF7 = assay: Cytotoxicity against human MCF7 assessed as cell growth at high concentration; format: functional
U-251 = assay: Cytotoxicity against human U251 assessed as cell growth at high concentration; format: functional
SK-MEL-2 = assay: Cytotoxicity against human SK-MEL-2 assessed as cell growth at high concentration; format: functional

Compound `Cc1ccc(-[n+]2noc([O-])c2CN2CCNCC2)cc1` has a zone of inhibition at 250 µg/mL (Aspergillus clavatus [1]) of 24 mm, an Activity (CAKI-1) of 91.35% and a CC50 [2] of 32.6 µg/mL (≈ 119 µM). For the same compound, the Activity (HCT-15) was 102.72%, the Activity (NCI-H23) was 101.63% and the Activity (OVCAR-8) was 104.3%. The Activity (A498) was 91.02%, the Activity (CCRF-CEM) was 102.79% and the Activity (SK-OV-3) was 97.27%. It also gave an Activity (KM12) of 91.06%, an Activity (MOLT-4) of 117.17% and an Activity (PC-3) of 88.56%. It also gave a CC50 [3] of 46 µg/mL (≈ 168 µM), an Activity (OVCAR-5) of 96.81% and a zone of inhibition at 250 µg/mL (Staphylococcus aureus) of 17 mm. For the same compound, the Activity (LOX IMVI) was 92.56%, the Activity (NCI-H460) was 95.72% and the EC50 (Cytomegalovirus [4]) was over 20 µg/mL. For the same compound, the Activity (UACC-62) was 93.66%, the Activity (HOP-62) was 90.65% and the “Ratio CC50/IC50” value [5] was under 1. It also gave an Activity (SN12C) of 91.43%, an MIC (Candida albicans [6]) of 200 µg/mL (≈ 729 µM) and an Activity (SF-295) of 98.69%. The Activity (K562) was 120.22%, the Activity (NCI-H226) was 84.85% and the Activity [7] was 99.62%. It also gave an Activity (RPMI-8226) of 100.12%, an Activity (SNB-19) of 103.47% and an Activity (DU-145) of 102.16%. The Activity (NCI-H322M) was 103.75%, the zone of inhibition at 250 µg/mL (Streptococcus pyogenes) was 17 mm and the zone of inhibition at 250 µg/mL (Candida albicans [8]) was 21 mm. The MIC (Aspergillus clavatus [9]) was 200 µg/mL (≈ 729 µM), the Activity (SK-MEL-5) was 100.25% and the Activity (EKVX) was 104.33%. It also gave an Activity (UO-31) of 70.1%, an EC50 (Cytomegalovirus [10]) of over 20 µg/mL and an MIC (Escherichia coli [11]) of 100 µg/mL (≈ 365 µM). The Activity (SF-268) was 95.92%, the Activity (UACC-257) was 96.41% and the Activity (OVCAR-4) was 114.7%. It also gave an Activity (SNB-75) of 145.71%, an MIC (Pseudomonas aeruginosa) of 50 µg/mL (≈ 182 µM) and an Activity (OVCAR-3) of 101.12%. The MIC (Aspergillus niger) was 200 µg/mL (≈ 729 µM), the Activity (TK-10) was 102.68% and the Activity (SW-620) was 96.29%. It also gave an Activity (A549) of 99.61%, an Activity (IGROV-1) of 101.72% and a zone of inhibition at 250 µg/mL (Escherichia coli [12]) of 21 mm. The Activity (T47D) was 106.04%, the “Ratio CC50/IC50” value [13] was under 1 and the Activity (BT-549) was 110.58%. For the same compound, the Activity (Hs-578T) was 101.05%, the Activity (ACHN) was 92.05% and the Activity (MCF7) was 90.74%. The Activity (U-251) was 91.33% and the Activity (SK-MEL-2) was 114.56%.

In the case of `Cc1ccc(-[n+]2noc([O-])c2CN2CCN(c3cccc(Cl)c3)CC2)cc1`, the zone of inhibition at 250 µg/mL (Aspergillus clavatus [1]) is reported as 24 mm, the Activity (CAKI-1) is reported as 86.38% and the CC50 [2] is reported as 27.4 µg/mL (≈ 71.3 µM). For the same compound, the Activity (HCT-15) was 77.65%, the Activity (NCI-H23) was 95.83% and the Activity (OVCAR-8) was 94.91%. The Activity (A498) was 51.7%, the Activity (CCRF-CEM) was 72.82% and the Activity (SK-OV-3) was 99.53%. It also gave an Activity (KM12) of 99.21%, an Activity (MOLT-4) of 88.5% and an Activity (PC-3) of 70.26%. For the same compound, the CC50 [3] was 38.2 µg/mL (≈ 99.3 µM), the Activity (OVCAR-5) was 94.62% and the zone of inhibition at 250 µg/mL (Staphylococcus aureus) was 22 mm. It also gave an Activity (LOX IMVI) of 99.09%, an Activity (NCI-H460) of 89.39% and an EC50 (Cytomegalovirus [4]) of 15.3 µg/mL (≈ 39.8 µM). The Activity (UACC-62) was 82.63%, the Activity (HOP-62) was 86.8% and the “Ratio CC50/IC50” value [5] was under 1. It also gave an Activity (SN12C) of 87.71%, an MIC (Candida albicans [6]) of 200 µg/mL (≈ 520 µM) and an Activity (SF-295) of 78.19%. It also gave an Activity (K562) of 53.83%, an Activity (NCI-H226) of 79.22% and an Activity [7] of 97.44%. It also gave an Activity (RPMI-8226) of 72.54%, an Activity (SNB-19) of 99.85% and an Activity (DU-145) of 95.5%. The Activity (NCI-H322M) was 106.64%, the zone of inhibition at 250 µg/mL (Streptococcus pyogenes) was 20 mm and the zone of inhibition at 250 µg/mL (Candida albicans [8]) was 21 mm. The MIC (Aspergillus clavatus [9]) was 200 µg/mL (≈ 520 µM), the Activity (SK-MEL-5) was 95.3% and the Activity (EKVX) was 88.38%. The Activity (UO-31) was 61.64%, the EC50 (Cytomegalovirus [10]) was over 20 µg/mL and the MIC (Escherichia coli [11]) was 100 µg/mL (≈ 260 µM). The Activity (SF-268) was 88.36%, the Activity (UACC-257) was 93.49% and the Activity (OVCAR-4) was 89.31%. The Activity (SNB-75) was 99.33%, the MIC (Pseudomonas aeruginosa) was 150 µg/mL (≈ 390 µM) and the Activity (OVCAR-3) was 88.44%. The MIC (Aspergillus niger) was 500 µg/mL (≈ 1300 µM), the Activity (TK-10) was 119.81% and the Activity (SW-620) was 92.74%. It also gave an Activity (A549) of 96.53%, an Activity (IGROV-1) of 98.49% and a zone of inhibition at 250 µg/mL (Escherichia coli [12]) of 22 mm. For the same compound, the Activity (T47D) was 72.96%, the “Ratio CC50/IC50” value [13] was under 1 and the Activity (BT-549) was 98.47%. For the same compound, the Activity (Hs-578T) was 92.29%, the Activity (ACHN) was 87.78% and the Activity (MCF7) was 92.1%. For the same compound, the Activity (U-251) was 82.08% and the Activity (SK-MEL-2) was 108.26%.

— ChEMBL document CHEMBL3044741, “Synthesis of novel biologically active methylene derivatives of sydnones” (Med Chem Res, 2013)
